Results as given in US20260317324A1, “BIFUNCTIONAL COMPOUNDS FOR DEGRADING BRAF VIA UBIQUITIN PROTEOSOME PATHWAY” (Nurix Therapeutics, Inc., priority 2023, published 2026).

Tests used:
Type in all cases: cell-based
BRAF G466V = biological target: T1, BRAF G466V (Homo sapiens, UniProt P15056, G466V); assay: BRAF HiBiT degradation assay, C-terminal HiBiT-tagged BRAF G466V overexpressed in HCT-116 BRAF−/− cells (clone 8), Nano-Glo HiBiT Lytic assay
T1 construct: Horizon Discovery (HCT-116 BRAF−/− cells); host or cells: HCT-116 BRAF−/− cells, clone 8, lentiviral transduction
Method in brief: (§1)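 Luminescence from the lytic HiBiT reagent, read after 10 min at room temperature, measured tagged BRAF remaining in lentivirally transduced HCT-116 BRAF−/− cells. Compounds were tested from 1 μM to 0.01 nM in half-log steps at 0.2% DMSO. DC50 values were fitted at 50% remaining.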

BRAF G469A = biological target: T2, BRAF G469A (Homo sapiens, UniProt P15056, G469A); assay: BRAF HiBiT degradation assay, C-terminal HiBiT-tagged BRAF G469A overexpressed in HCT-116 BRAF−/− cells (clone 34), Nano-Glo HiBiT Lytic assay
T2 construct: Horizon Discovery (HCT-116 BRAF−/− cells); host or cells: HCT-116 BRAF−/− cells, clone 34, lentiviral transduction
Method in brief: as §1

BRAF V600E = biological target: T3, BRAF V600E (Homo sapiens, UniProt P15056, V600E); assay: BRAF HiBiT degradation assay, C-terminal HiBiT-tagged BRAF V600E A375 cells (clone 1F10), Nano-Glo HiBiT Lytic assay; settings: for Dmax: A-375
T3 construct: endogenous C-terminal HiBiT fusion tag on BRAF V600E allele; endogenous in cells; host or cells: A375 clone 1F10 (CRISPR-Cas9 knock-in of the HiBiT tag; parental A375 from ATCC)
Method in brief: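 Endogenous BRAF V600E-HiBiT A375 (1F10), 10,000 cells/well, 24 h preculture; cpd 11-pt, 1 μM–0.01 nM half-log, n=2, 0.2% DMSO; HiBiT lytic detection 10 min RT; DC50 = fitted conc at Y=50; Obs. Dmax vs DMSO.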

BRAF D594G = biological target: T4, BRAF D594G (Homo sapiens, UniProt P15056, D594G); assay: BRAF HiBiT degradation assay, C-terminal HiBiT-tagged BRAF D594G overexpressed in HCT-116 BRAF−/− cells (clone 63), Nano-Glo HiBiT Lytic assay
T4 construct: Horizon Discovery (HCT-116 BRAF−/− cells); host or cells: HCT-116 BRAF−/− cells, clone 63, lentiviral transduction
Method in brief: as §1

[1] = BRAF G466V (Class 3), HCT-116 BRAF−/− cells, DC50 at 50% degradation
[2] = BRAF G466V (Class 3), HCT-116 BRAF−/− cells, observed Dmax relative to DMSO control
[3] = BRAF G469A (Class 2), HCT-116 BRAF−/− cells, DC50 at 50% degradation
[4] = BRAF G469A (Class 2), HCT-116 BRAF−/− cells, observed Dmax relative to DMSO control
[5] = A375 (BRAF V600E, Class 1), DC50 at 50% degradation
[6] = A375 (BRAF V600E, Class 1), observed Dmax, % protein degraded relative to DMSO control
[7] = BRAF D594G (Class 3), HCT-116 BRAF−/− cells, DC50 at 50% degradation
[8] = BRAF D594G (Class 3), HCT-116 BRAF−/− cells, observed Dmax relative to DMSO control
[9] = BRAF G466V, DC50 at 50%: fitted conc. at Y=50
[10] = HCT-116, BRAF G466V, percentage protein degraded at maximal compound effect relative to DMSO
[11] = Class 2, BRAF G469A, DC50 at 50%: fitted conc. at Y=50
[12] = HCT-116, Class 2, BRAF G469A, percentage protein degraded at maximal compound effect relative to DMSO
[13] = A375 (BRAF V600E), DC50 at 50%: fitted conc. at Y=50
[14] = A375 (BRAF V600E), percentage protein degraded at maximal compound effect relative to DMSO
[15] = BRAF D594G, DC50 at 50%: fitted conc. at Y=50
[16] = HCT-116, BRAF D594G, percentage protein degraded at maximal compound effect relative to DMSO

T2 sequence (P15056 whole entry G469A): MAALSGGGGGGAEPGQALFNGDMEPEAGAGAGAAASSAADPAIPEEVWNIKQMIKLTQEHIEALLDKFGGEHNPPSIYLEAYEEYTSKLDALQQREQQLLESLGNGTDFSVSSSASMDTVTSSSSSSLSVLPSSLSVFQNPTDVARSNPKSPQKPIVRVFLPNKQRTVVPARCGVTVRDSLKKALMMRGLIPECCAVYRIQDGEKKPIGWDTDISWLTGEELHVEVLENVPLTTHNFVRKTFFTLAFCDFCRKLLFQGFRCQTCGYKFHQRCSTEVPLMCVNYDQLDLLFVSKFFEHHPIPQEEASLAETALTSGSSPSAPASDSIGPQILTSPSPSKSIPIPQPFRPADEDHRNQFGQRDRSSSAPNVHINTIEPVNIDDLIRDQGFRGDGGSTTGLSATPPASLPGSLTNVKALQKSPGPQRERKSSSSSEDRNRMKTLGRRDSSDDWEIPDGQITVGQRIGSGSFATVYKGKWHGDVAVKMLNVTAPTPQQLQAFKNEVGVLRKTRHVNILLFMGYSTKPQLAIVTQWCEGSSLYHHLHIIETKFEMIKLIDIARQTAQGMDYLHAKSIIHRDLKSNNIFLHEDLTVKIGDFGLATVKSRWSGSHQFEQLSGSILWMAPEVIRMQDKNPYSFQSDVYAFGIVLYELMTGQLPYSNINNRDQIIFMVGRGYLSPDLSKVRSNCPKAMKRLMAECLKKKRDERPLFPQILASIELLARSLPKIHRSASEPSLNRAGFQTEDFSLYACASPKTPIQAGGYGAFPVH
T4 sequence (P15056 whole entry D594G): as the sequence (P15056 whole entry G469A) above, with A469G, D594G counted along it
T3 sequence (P15056 whole entry V600E, the tested form may be a part): as the sequence (P15056 whole entry G469A) above, with A469G, V600E counted along it
T1 sequence (P15056 whole entry G466V): as the sequence (P15056 whole entry G469A) above, with G466V, A469G counted along it

| Compound | DC50 (BRAF G466V; [1]) [nM] | Dmax (BRAF G466V; [2]) [%] | DC50 (BRAF G469A; [3]) [nM] | Dmax (BRAF G469A; [4]) [%] | DC50 (BRAF V600E; [5]) [nM] | Dmax (BRAF V600E; [6]) [%] | DC50 (BRAF D594G; [7]) [nM] | Dmax (BRAF D594G; [8]) [%] | DC50 (BRAF G466V; [9]) [nM] | Dmax (BRAF G466V; [10]) [%] | DC50 (BRAF G469A; [11]) [nM] | Dmax (BRAF G469A; [12]) [%] | DC50 (BRAF V600E; [13]) [nM] | Dmax (BRAF V600E; [14]) [%] | DC50 (BRAF D594G; [15]) [nM] | Dmax (BRAF D594G; [16]) [%] |
| --- | --- | --- | --- | --- | --- | --- | --- | --- | --- | --- | --- | --- | --- | --- | --- | --- |
| C[C@@H]1CN(c2ccc(-n3cc(-c4cc(Cl)cc(NS(=O)(=O)N5CC[C@@H](F)C5)c4F)c(-c4ccncc4)n3)cc2)CCN1CC1CCN(c2ccc([C@H]3CCC(=O)NC3=O)cc2)CC1 [Compound 317, (3R)—N-[5-chloro-3-(1-{4-[(3R)-4-[(1-{4-[(3R)-2,6-dioxopiperidin-3-yl]phenyl}piperidin-4-yl)methyl]-3-methylpiperazin-1-yl]phenyl}-3-(pyridin-4-yl)-1H-pyrazol-4-yl)-2-fluorophenyl]-3-fluoropyrrolidine-1-sulfonamide] | < 10 | > 70 | < 10 | > 70 | < 10 | > 70 | < 10 | 30 to 70 | – | – | – | – | – | – | – | – |
| CCN(C)S(=O)(=O)Nc1cccc(-c2nc(C)sc2-c2ccnc(Nc3ccc(N4CCN(CC5CCN(c6ccc(C7CCC(=O)NC7=O)cn6)CC5)CC4)cn3)n2)c1F (racemic) [Compound 43, Rac-(3S)-3-{6-[4-({4-[6-({4-[4-(3-{[ethyl(methyl)sulfamoyl]amino}-2-fluorophenyl)-2-methyl-1,3-thiazol-5-yl]pyrimidin-2-yl}amino)pyridin-3-yl]piperazin-1-yl}methyl)piperidin-1-yl]pyridin-3-yl}piperidine-2,6-dione] | – | – | – | – | – | – | – | – | 10 to 50 | 30 to 70 | 10 to 50 | 30 to 70 | < 10 | > 70 | < 10 | 30 to 70 |
| CCCS(=O)(=O)Nc1cccc(-c2nc(C(C)(C)C)sc2-c2ccnc(Nc3ccc(C4CCN(CC5CCN(c6ccc(C7CCC(=O)NC7=O)cn6)CC5)CC4)cc3)n2)c1F (racemic) [Compound 35, Rac-N-[3-(2-tert-butyl-5-{2-[(4-{1-[(1-{5-[(3R)-2,6-dioxopiperidin-3-yl]pyridin-2-yl}piperidin-4-yl)methyl]piperidin-4-yl}phenyl)amino]pyrimidin-4-yl}-1,3-thiazol-4-yl)-2-fluorophenyl]propane-1-sulfonamide] | – | – | – | – | – | – | – | – | > 500 | 30 to 70 | 10 to 50 | < 30 | < 10 | > 70 | > 500 | 30 to 70 |
| CCCS(=O)(=O)Nc1cccc(-c2nc(C(C)(C)C)sc2-c2ccnc(Nc3cnn(CC4CCN(C(=O)C[C@H]5CCN(c6ccc(C7CCC(=O)NC7=O)cc6)C5)CC4)c3)n2)c1F (mixture of isomers) [Compound 111, N-(3-{2-tert-butyl-5-[2-({1-[(1-{2-[(3R)-1-{4-[(3RS)-2,6-dioxopiperidin-3-yl]phenyl}pyrrolidin-3-yl]acetyl}piperidin-4-yl)methyl]-1H-pyrazol-4-yl}amino)pyrimidin-4-yl]-1,3-thiazol-4-yl}-2-fluorophenyl)propane-1-sulfonamide] | – | – | – | – | – | – | – | – | 50 to 500 | < 30 | 50 to 500 | < 30 | < 10 | 30 to 70 | 50 to 500 | 30 to 70 |
| CCCS(=O)(=O)Nc1cccc(-c2nc(C(C)(C)C)sc2-c2ccnc(Nc3cccc(C4CCN(CC5CCN(c6ccc7c(=O)n(C8CCC(=O)NC8=O)ccc7c6)CC5)CC4)c3)n2)c1F (racemic) [Compound 76, Rac-N-[3-(2-tert-butyl-5-{2-[(3-{1-[(1-{2-[(3R)-2,6-dioxopiperidin-3-yl]-1-oxo-1,2-dihydroisoquinolin-6-yl}piperidin-4-yl)methyl]piperidin-4-yl}phenyl)amino]pyrimidin-4-yl}-1,3-thiazol-4-yl)-2-fluorophenyl]propane-1-sulfonamide] | – | – | – | – | – | – | – | – | > 500 | < 30 | > 500 | < 30 | 10 to 50 | 30 to 70 | > 500 | < 30 |
| CCCS(=O)(=O)Nc1cccc(-c2nc(C3CCN(C(=O)C4CCN(C(=O)C5CCN(c6ccc(C7CCC(=O)NC7=O)cn6)CC5)CC4)CC3)sc2-c2ccncn2)c1F (racemic) [Compound 220, Rac-N-[3-(2-{1-[1-(1-{5-[(3R)-2,6-dioxopiperidin-3-yl]pyridin-2-yl}piperidine-4-carbonyl)piperidine-4-carbonyl]piperidin-4-yl}-5-(pyrimidin-4-yl)-1,3-thiazol-4-yl)-2-fluorophenyl]propane-1-sulfonamide] | – | – | – | – | – | – | – | – | 10 to 50 | 30 to 70 | > 500 | 30 to 70 | < 10 | > 70 | < 10 | 30 to 70 |
| CCCS(=O)(=O)Nc1cccc(-c2nc(C(C)(C)C)sc2-c2ccnc(Nc3ccc(C4CCN(C(=O)C5CCN(c6cc(C7CCC(=O)NC7=O)ccn6)CC5)CC4)cc3)n2)c1F (racemic) [Compound 163, Rac-N-(3-{2-tert-butyl-5-[2-({4-[1-(1-{4-[(3R)-2,6-dioxopiperidin-3-yl]pyridin-2-yl}piperidine-4-carbonyl)piperidin-4-yl]phenyl}amino)pyrimidin-4-yl]-1,3-thiazol-4-yl}-2-fluorophenyl)propane-1-sulfonamide] | – | – | – | – | – | – | – | – | > 500 | < 30 | > 500 | < 30 | 50 to 500 | 30 to 70 | > 500 | < 30 |

The remaining lines, values ahead:

| DC50 (BRAF G466V; [1]) [nM] | Dmax (BRAF G466V; [2]) [%] | DC50 (BRAF G469A; [3]) [nM] | Dmax (BRAF G469A; [4]) [%] | DC50 (BRAF V600E; [5]) [nM] | Dmax (BRAF V600E; [6]) [%] | DC50 (BRAF D594G; [7]) [nM] | Dmax (BRAF D594G; [8]) [%] | DC50 (BRAF G466V; [9]) [nM] | Dmax (BRAF G466V; [10]) [%] | DC50 (BRAF G469A; [11]) [nM] | Dmax (BRAF G469A; [12]) [%] | DC50 (BRAF V600E; [13]) [nM] | Dmax (BRAF V600E; [14]) [%] | DC50 (BRAF D594G; [15]) [nM] | Dmax (BRAF D594G; [16]) [%] | Compound |
| --- | --- | --- | --- | --- | --- | --- | --- | --- | --- | --- | --- | --- | --- | --- | --- | --- |
| < 10 | > 70 | < 10 | > 70 | < 10 | > 70 | < 10 | > 70 | – | – | – | – | – | – | – | – | O=C1CC[C@H](c2ccc(N3CCC(CN4CCN(c5cc(F)c(-n6cc(-c7cc(Cl)cc(NS(=O)(=O)N8CCCC8)c7F)c(-c7ccncc7)n6)cc5F)CC4)CC3)cc2)C(=O)N1 [Compound 353, N-{5-chloro-3-[1-(4-{4-[(1-{4-[(3R)-2,6-dioxopiperidin-3-yl]phenyl}piperidin-4-yl)methyl]piperazin-1-yl}-2,5-difluorophenyl)-3-(pyridin-4-yl)-1H-pyrazol-4-yl]-2-fluorophenyl}pyrrolidine-1-sulfonamide] |
| < 10 | > 70 | 10 to 50 | 30 to 70 | < 10 | > 70 | < 10 | 30 to 70 | – | – | – | – | – | – | – | – | O=C1CC[C@H](c2ccc(N3CCC(CN4CCN(c5ccc(-n6cc(-c7cc(C(F)F)cc(NS(=O)(=O)N8CCCC8)c7F)c(-c7ccncc7)n6)c(F)c5)CC4)CC3)cc2)C(=O)N1 [Compound 362, N-[5-(difluoromethyl)-3-[1-(4-{4-[(1-{4-[(3R)-2,6-dioxopiperidin-3-yl]phenyl}piperidin-4-yl)methyl]piperazin-1-yl}-2-fluorophenyl)-3-(pyridin-4-yl)-1H-pyrazol-4-yl]-2-fluorophenyl]pyrrolidine-1-sulfonamide] |
| < 10 | 30 to 70 | > 500 | 30 to 70 | < 10 | > 70 | < 10 | 30 to 70 | – | – | – | – | – | – | – | – | O=C1CCN(c2ccc(N3CCC(CN4CCN(c5ccc(-n6cc(-c7cc(Cl)cc(NS(=O)(=O)N8CC[C@@H](F)C8)c7F)c(-c7ccncc7)n6)cc5F)CC4)CC3)cc2)C(=O)N1 [Compound 365, (3R)—N-[5-chloro-3-(1-{4-[4-({1-[4-(2,4-dioxo-1,3-diazinan-1-yl)phenyl]piperidin-4-yl}methyl)piperazin-1-yl]-3-fluorophenyl}-3-(pyridin-4-yl)-1H-pyrazol-4-yl)-2-fluorophenyl]-3-fluoropyrrolidine-1-sulfonamide] |
